Assay results published in US20060089390A1, “3-benzoyl-2,4,5-substituted pyridine derivatives or salts thereof and bactericides containing the same” (Ishihara Sangyo Kaisha, Ltd., priority 2002, published 2006).
Like-named read-outs stand apart in the source and are kept apart here.

Legend:
wheat powdery mildew = test: Test on preventive effect against wheat powdery mildew; assay type: in vivo, Wheat (cultivar: Norin-61-go); conditions: Triticum aestivum, foliar spray before inoculation, examined 6 to 8 days after inoculation, read-out: controlling effects as compared with non-treated cases (area of sporogony)
Experimental: Tests on Preventive Effect Against Wheat Powdery Mildew Wheat (cultivar: […] After the drug solution dried, the wheat was inoculated by spreading with conidiospore of fungi of powdery mildew, and the wheat was kept in a thermostatic chamber at 20° C. From 6 to 8 days after the inoculation, the area of sporogony was examined.

rice blast = test: whole plant or invertebrate; assay type: in vivo, Rice (cultivar: Nihonbare); conditions: Pyricularia oryzae, foliar, read-out: controlling effects as compared with non-treated cases (number of lesions)
cucumber powdery mildew [1] = test: Test on preventive effect against cucumber powdery mildew; assay type: in vivo, Cucumber (cultivar: Suyo); conditions: Cucumis sativus, foliar spray before inoculation, examined 6 to 11 days after inoculation, read-out: controlling effects as compared with non-treated cases (area of sporogony)
Experimental: Test on Preventive Effect Against Cucumber Powdery Mildew Cucumber (cultivar: […] After the drug solution dried, the cucumber was sprayed and inoculated with a conidiospore suspension of fungi of powdery mildew, and the cucumber was kept in a thermostatic chamber at 20° C. From 6 to 11 days after the inoculation, the area of sporogony was examined.

cucumber powdery mildew [2] = test: Test on rainfastness of effect against cucumber powdery mildew; assay type: in vivo, Cucumber (cultivar: Suyo); conditions: Cucumis sativus, topical, 500 gai/ha
Experimental: Cucumber (cultivar: […] A day after the treatment, 10 mm/hr of artificial rainfall was applied for 1 hour. Together with seedlings not subjected to rainfall treatment (preventive), the cucumber was sprayed and inoculated with a conidiospore suspension of fungi of powdery mildew, and the cucumber was kept in a thermostatic chamber at 20° C. From 6 to 11 days after the inoculation, the number of lesions was examined, and the controlling rate was calculated by comparison with the non-treated cases. The results are shown in Table 5.

[3] = 10 mm/hr artificial rainfall for 1 hour a day after treatment, read-out: Controlling rate of cucumber powdery mildew (%) Rainfall
[4] = no rainfall treatment (preventive), read-out: Controlling rate of cucumber powdery mildew (%) Preventive

With `CCc1c(Cl)cnc(OC)c1C(=O)c1c(C)cc(OC)c(OC)c1OC` [1-2, 3-(2,3,4-trimethoxy-6-methylbenzoyl)-5-chloro-4-ethyl-2-methoxypyridine] the pest or weed control at 125 ppm (wheat powdery mildew) was no less than 90%, the pest or weed control at 500 ppm (rice blast) was no less than 90% and the pest or weed control at 125 ppm (cucumber powdery mildew [1]) was no less than 90%.

With `CCOc1cc(C(=O)c2c(OC)ncc(Cl)c2Cl)c(C)cc1OC` [1-4, 3-(5-ethoxy-4-methoxy-2-methylbenzoyl)-4,5-dichloro-2-methoxypyridine] the pest or weed control at 125 ppm (wheat powdery mildew) was no less than 90% and the pest or weed control at 125 ppm (cucumber powdery mildew [1]) was no less than 90%.

In the case of `CCOc1ncc(Cl)c(Br)c1C(=O)c1c(C)cc(OC)c(OC)c1OC` [1-5, 3-(2,3,4-trimethoxy-6-methylbenzoyl)-4-bromo-5-chloro-2-ethoxypyridine], the pest or weed control at 125 ppm (wheat powdery mildew) is reported as no less than 90% and the pest or weed control at 125 ppm (cucumber powdery mildew [1]) is reported as no less than 90%.

With `CCOc1ncc(Cl)c(C)c1C(=O)c1c(C)cc(OC)c(OC)c1OC` [1-6, 3-(2,3,4-trimethoxy-6-methylbenzoyl)-5-chloro-2-ethoxy-4-methylpyridine] the pest or weed control at 125 ppm (wheat powdery mildew) was no less than 90%.

In the case of `CCOc1ncc(Br)c(Cl)c1C(=O)c1c(C)cc(OC)c(OC)c1OC` [1-7, 3-(2,3,4-trimethoxy-6-methylbenzoyl)-5-bromo-4-chloro-2-ethoxypyridine], the pest or weed control at 125 ppm (wheat powdery mildew) is reported as no less than 90% and the pest or weed control at 125 ppm (cucumber powdery mildew [1]) is reported as no less than 90%.

`COc1cc(C)c(C(=O)c2c(OC)ncc(Cl)c2SC)c(OC)c1OC` [1-10, 3-(2,3,4-trimethoxy-6-methylbenzoyl)-5-chloro-2-methoxy-4-methylthiopyridine] gave a pest or weed control at 125 ppm (wheat powdery mildew) of no less than 90% and a pest or weed control at 125 ppm (cucumber powdery mildew [1]) of no less than 90%.

Compound `COc1cc(C)c(C(=O)c2c(OC)ncc(Cl)c2OC)c(OC)c1OC` [1-11, 3-(2,3,4-trimethoxy-6-methylbenzoyl)-5-chloro-2,4-dimethoxypyridine] has a pest or weed control at 125 ppm (wheat powdery mildew) of no less than 90%, a melting point of 93 to 94 °C and a pest or weed control at 125 ppm (cucumber powdery mildew [1]) of no less than 90%.

Compound `COc1cc(C)c(C(=O)c2c(OC)ncc(Br)c2Br)c(OC)c1OC` [1-12, 3-(2,3,4-trimethoxy-6-methylbenzoyl)-4,5-dibromo-2-methoxypyridine] has a pest or weed control at 125 ppm (wheat powdery mildew) of no less than 90%, a pest or weed control at 500 g/ha (cucumber powdery mildew [2]; [3]) of 68% and a pest or weed control at 500 g/ha (cucumber powdery mildew [2]; [4]) of 100%. For the same compound, the pest or weed control at 125 ppm (cucumber powdery mildew [1]) was no less than 90%.

`COc1cc(C)c(C(=O)c2c(OC)ncc(C)c2Br)c(OC)c1OC` [1-13, 3-(2,3,4-trimethoxy-6-methylbenzoyl)-4-bromo-2-methoxy-5-methylpyridine] showed a pest or weed control at 125 ppm (wheat powdery mildew) of no less than 90% and a pest or weed control at 125 ppm (cucumber powdery mildew [1]) of no less than 90%.

With `COc1cc(C)c(C(=O)c2c(OC)ncc(Br)c2C(F)(F)F)c(OC)c1OC` [1-14, 3-(2,3,4-trimethoxy-6-methylbenzoyl)-5-bromo-4-trifluoromethyl-2-methoxypyridine] the pest or weed control at 125 ppm (wheat powdery mildew) was no less than 90%, the pest or weed control at 500 g/ha (cucumber powdery mildew [2]; [3]) was 100% and the pest or weed control at 500 g/ha (cucumber powdery mildew [2]; [4]) was 100%. It also gave a pest or weed control at 125 ppm (cucumber powdery mildew [1]) of no less than 90%.

With `COc1cc(C)c(C(=O)c2c(Cl)ncc(C)c2Cl)c(OC)c1OC` [1-16, 3-(2,3,4-trimethoxy-6-methylbenzoyl)-2,4-dichloro-5-methylpyridine] the pest or weed control at 125 ppm (wheat powdery mildew) was no less than 90%, the melting point was 78 to 80 °C and the pest or weed control at 500 ppm (rice blast) was no less than 90%. For the same compound, the pest or weed control at 125 ppm (cucumber powdery mildew [1]) was no less than 90%.

For `COc1cc(C)c(C(=O)c2c(Cl)ncc(I)c2Cl)c(OC)c1OC` [1-17, 3-(2,3,4-trimethoxy-6-methylbenzoyl)-2,4-dichloro-5-iodopyridine], the pest or weed control at 125 ppm (wheat powdery mildew) was no less than 90% and the pest or weed control at 500 ppm (rice blast) was no less than 90%.

Compound `COc1cc(C)c(C(=O)c2c(F)ncc(C)c2I)c(OC)c1OC` [1-18, 3-(2,3,4-trimethoxy-6-methylbenzoyl)-2-fluoro-4-iodo-5-methylpyridine] has a pest or weed control at 125 ppm (wheat powdery mildew) of no less than 90% and a melting point of 140 to 141 °C.

`COc1cc(C)c(C(=O)c2c(F)ncc(C)c2C)c(OC)c1OC` [1-19, 3-(2,3,4-trimethoxy-6-methylbenzoyl)-2-fluoro-4,5-dimethylpyridine] gave a pest or weed control at 125 ppm (wheat powdery mildew) of no less than 90% and a melting point of 91 to 92 °C.

`COc1cc(C)c(C(=O)c2c(OC)ncc(C)c2C)c(OC)c1OC` [1-20, 3-(2,3,4-trimethoxy-6-methylbenzoyl)-2-methoxy-4,5-dimethylpyridine] gave a pest or weed control at 125 ppm (wheat powdery mildew) of no less than 90% and a melting point of 84 to 86 °C.

For `CCOc1ncc(C)c(C)c1C(=O)c1c(C)cc(OC)c(OC)c1OCC` [1-21, 3-(2-ethoxy-3,4-dimethoxy-6-methylbenzoyl)-2-ethoxy-4,5-dimethylpyridine], the pest or weed control at 125 ppm (wheat powdery mildew) was no less than 90% and the pest or weed control at 125 ppm (cucumber powdery mildew [1]) was no less than 90%.

`COc1cc(C)c(C(=O)c2c(SC)ncc(C)c2C)c(OC)c1OC` [1-22, 3-(2,3,4-trimethoxy-6-methylbenzoyl)-4,5-dimethyl-2-methylthiopyridine] gave a pest or weed control at 125 ppm (wheat powdery mildew) of no less than 90%, a pest or weed control at 500 ppm (rice blast) of no less than 90% and a pest or weed control at 125 ppm (cucumber powdery mildew [1]) of no less than 90%.

`COc1cc(C)c(C(=O)c2c(OC)ncc(Br)c2Cl)c(OC)c1OC` [1-23, 3-(2,3,4-trimethoxy-6-methylbenzoyl)-5-bromo-4-chloro-2-methoxypyridine] showed a pest or weed control at 125 ppm (wheat powdery mildew) of no less than 90%, a pest or weed control at 500 g/ha (cucumber powdery mildew [2]; [3]) of 100% and a pest or weed control at 500 g/ha (cucumber powdery mildew [2]; [4]) of 100%. It also gave a pest or weed control at 500 ppm (rice blast) of no less than 90% and a pest or weed control at 125 ppm (cucumber powdery mildew [1]) of no less than 90%.

In the case of `COc1cc(C)c(C(=O)c2c(OC)ncc(C)c2Cl)c(OC)c1OC` [1-24, 3-(2,3,4-trimethoxy-6-methylbenzoyl)-4-chloro-2-methoxy-5-methylpyridine], the pest or weed control at 125 ppm (wheat powdery mildew) is reported as no less than 90%, the pest or weed control at 500 g/ha (cucumber powdery mildew [2]; [3]) is reported as 85% and the pest or weed control at 500 g/ha (cucumber powdery mildew [2]; [4]) is reported as 100%. The pest or weed control at 500 ppm (rice blast) was no less than 90% and the pest or weed control at 125 ppm (cucumber powdery mildew [1]) was no less than 90%.

Compound `COc1cc(C)c(C(=O)c2c(OC)ncc(Br)c2C)c(OC)c1OC` [1-36, 3-(2,3,4-trimethoxy-6-methylbenzoyl)-5-bromo-2-methoxy-4-methylpyridine] has a pest or weed control at 125 ppm (wheat powdery mildew) of no less than 90% and a pest or weed control at 125 ppm (cucumber powdery mildew [1]) of no less than 90%.

Compound `COc1cc(C)c(C(=O)c2c(OC)cnc(Cl)c2C)c(OC)c1OC` [2-1, 4-(2,3,4-trimethoxy-6-methylbenzoyl)-2-chloro-5-methoxy-3-methylpyridine, reference compound] has a pest or weed control at 125 ppm (wheat powdery mildew) of no less than 90%, a pest or weed control at 500 g/ha (cucumber powdery mildew [2]; [3]) of 0% and a pest or weed control at 500 g/ha (cucumber powdery mildew [2]; [4]) of 100%. It also gave a pest or weed control at 125 ppm (cucumber powdery mildew [1]) of no less than 90%.

`COc1cc(C)c(C(=O)c2c(OC)cnc(C)c2C(F)(F)F)c(OC)c1OC` [2-2, 4-(2,3,4-trimethoxy-6-methylbenzoyl)-3-trifluoromethyl-5-methoxy-2-methylpyridine, reference compound] showed a pest or weed control at 125 ppm (wheat powdery mildew) of no less than 90%, a pest or weed control at 500 g/ha (cucumber powdery mildew [2]; [3]) of 35% and a pest or weed control at 500 g/ha (cucumber powdery mildew [2]; [4]) of 100%. The pest or weed control at 125 ppm (cucumber powdery mildew [1]) was no less than 90%.

Work on `COc1cc(C)c(C(=O)c2c(OC)cnc(Br)c2C)c(OC)c1OC` [2-3, 4-(2,3,4-trimethoxy-6-methylbenzoyl)-2-bromo-5-methoxy-3-methylpyridine, reference compound] yielded a pest or weed control at 125 ppm (wheat powdery mildew) of no less than 90%, a pest or weed control at 500 g/ha (cucumber powdery mildew [2]; [3]) of 0% and a pest or weed control at 500 g/ha (cucumber powdery mildew [2]; [4]) of 100%. It also gave a pest or weed control at 500 ppm (rice blast) of no less than 90% and a pest or weed control at 125 ppm (cucumber powdery mildew [1]) of no less than 90%.

Compound `COc1cc(C)c(C(=O)c2c(OC)cnc(C)c2Cl)c(OC)c1OC` [2-4, 4-(2,3,4-trimethoxy-6-methylbenzoyl)-3-chloro-5-methoxy-2-methylpyridine, reference compound] has a pest or weed control at 125 ppm (wheat powdery mildew) of no less than 90%, a pest or weed control at 500 g/ha (cucumber powdery mildew [2]; [3]) of 35% and a pest or weed control at 500 g/ha (cucumber powdery mildew [2]; [4]) of 92.5%.

Compound `COc1cc(C)c(C(=O)c2c(OC)ccnc2OC)c(OC)c1OC` [2-5, 3-(2,3,4-trimethoxy-6-methylbenzoyl)-2,4-dimethoxypyridine, reference compound] has a pest or weed control at 125 ppm (wheat powdery mildew) of no less than 90%, a pest or weed control at 500 g/ha (cucumber powdery mildew [2]; [3]) of 0% and a pest or weed control at 500 g/ha (cucumber powdery mildew [2]; [4]) of 95%.

Work on `COc1cc(C)c(C(=O)c2c(OC)cnc(Cl)c2Cl)c(OC)c1OC` [2-6, 4-(2,3,4-trimethoxy-6-methylbenzoyl)-2,3-dichloro-5-methoxypyridine, reference compound] yielded a pest or weed control at 125 ppm (wheat powdery mildew) of no less than 90%, a pest or weed control at 500 g/ha (cucumber powdery mildew [2]; [3]) of 0% and a pest or weed control at 500 g/ha (cucumber powdery mildew [2]; [4]) of 90%. It also gave a pest or weed control at 125 ppm (cucumber powdery mildew [1]) of no less than 90%.

With `COc1cc(C)c(C(=O)c2c(OC)ncc(Cl)c2C)c(OC)c1OC` [Compound No. 1-35, 3-(2,3,4-trimethoxy-6-methylbenzoyl)-5-chloro-2-methoxy-4-methylpyridine] the pest or weed control at 125 ppm (wheat powdery mildew) was no less than 90%, the pest or weed control at 500 g/ha (cucumber powdery mildew [2]; [3]) was 100% and the pest or weed control at 500 g/ha (cucumber powdery mildew [2]; [4]) was 100%. It also gave a pest or weed control at 500 ppm (rice blast) of no less than 90% and a pest or weed control at 125 ppm (cucumber powdery mildew [1]) of no less than 90%.

`COc1cc(C)c(C(=O)c2c(OC)ncc(C)c2C(F)(F)F)c(OC)c1OC` [Compound No. 1-37, 3-(2,3,4-trimethoxy-6-methylbenzoyl)-4-trifluoromethyl-2-methoxy-5-methylpyridine] gave a pest or weed control at 125 ppm (wheat powdery mildew) of no less than 90%, a pest or weed control at 500 g/ha (cucumber powdery mildew [2]; [3]) of 100% and a pest or weed control at 500 g/ha (cucumber powdery mildew [2]; [4]) of 100%. It also gave a pest or weed control at 125 ppm (cucumber powdery mildew [1]) of no less than 90%.
